Experimental data published in PubChem BioAssay (NCI).
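Dose response: 5 concentrations. Exposure: 48 h. Format: 96-well plates. Endpoint: linear interpolation; highest concentration if not reached. Abbreviation: GI50, concentration required for 50% inhibition of growth. TGI denotes the concentration required for complete inhibition of growth.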

Legend:
Assay in all cases: NCI tumour cell line growth inhibition, 48 h
[1] = tested on: PC-3 prostate
[2] = tested on: LOX IMVI melanoma
[3] = tested on: OVCAR-5 ovarian
[4] = tested on: HL-60(TB) leukemia
[5] = tested on: SW-620 colon
[6] = tested on: OVCAR-8 ovarian
[7] = tested on: U251 CNS
[8] = tested on: MDA-MB-231 breast
[9] = tested on: A549 NSCLC
[10] = tested on: UO-31 renal
[11] = tested on: OVCAR-4 ovarian
[12] = tested on: NCI-H23 lung
[13] = tested on: SK-OV-3 ovarian
[14] = tested on: SF-268 CNS
[15] = tested on: MDA-MB-435
[16] = tested on: HT29 colon
[17] = tested on: IGROV1 ovarian
[18] = tested on: SF-295 CNS
[19] = tested on: RXF 393 renal
[20] = tested on: KM12 colon
[21] = tested on: NCI-H226 lung
[22] = tested on: NCI/ADR-RES ovarian
[23] = tested on: MALME-3M melanoma
[24] = tested on: HCT-15 colon
[25] = tested on: COLO 205 colon
[26] = tested on: T-47D breast
[27] = tested on: A498 renal
[28] = tested on: UACC-62 melanoma
[29] = tested on: DU-145 prostate
[30] = tested on: SNB-19 CNS
[31] = tested on: CCRF-CEM leukemia
[32] = tested on: HOP-92 NSCLC
[33] = tested on: SK-MEL-5 melanoma
[34] = tested on: SK-MEL-28 melanoma
[35] = tested on: TK-10 renal
[36] = tested on: 786-0 renal
[37] = tested on: SF-539 CNS
[38] = tested on: HS 578T breast
[39] = tested on: SN12C renal
[40] = tested on: MCF7 breast
[41] = tested on: NCI-H522 lung
[42] = tested on: CAKI-1 renal
[43] = tested on: SR leukemia
[44] = tested on: EKVX NSCLC
[45] = tested on: K-562 leukemia
[46] = tested on: HCC-2998 colon
[47] = tested on: SK-MEL-2 melanoma
[48] = tested on: UACC-257 melanoma
[49] = tested on: HCT-116 colon
[50] = tested on: MOLT-4 leukemia
[51] = tested on: HOP-62 NSCLC
[52] = tested on: OVCAR-3 ovarian
[53] = tested on: NCI-H460 lung
[54] = tested on: SNB-75 CNS
[55] = tested on: ACHN renal
[56] = tested on: BT-549 breast

CC1CCN(C(=O)OCc2nc3nc(Cl)nc(N4CCOCC4)c3[nH]2)CC1
GI50 [1]: 832 nM
TGI [1]: 2420 nM
GI50 [2]: 175 nM
TGI [2]: 473 nM
GI50 [3]: 1310 nM
TGI [3]: 2730 nM
GI50 [4]: 423 nM
TGI [4]: 3780 nM
GI50 [5]: 551 nM
TGI [5]: 2070 nM
GI50 [6]: 1900 nM
TGI [6]: 9020 nM
GI50 [7]: 1660 nM
TGI [7]: 3430 nM
GI50 [8]: 1250 nM
TGI [8]: 2700 nM
GI50 [9]: 1940 nM
TGI [9]: 4810 nM
GI50 [10]: 692 nM
TGI [10]: 2050 nM
GI50 [11]: 1350 nM
TGI [11]: 2720 nM
GI50 [12]: 1580 nM
TGI [12]: 3650 nM
GI50 [13]: 7350 nM
TGI [13]: 21000 nM
GI50 [14]: 1420 nM
TGI [14]: 2840 nM
GI50 [15]: 835 nM
TGI [15]: 2240 nM
GI50 [16]: 831 nM
TGI [16]: 6380 nM
GI50 [17]: 529 nM
TGI [17]: 1830 nM
GI50 [18]: 3760 nM
TGI [18]: 15300 nM
GI50 [19]: 554 nM
TGI [19]: 2000 nM
GI50 [20]: 1580 nM
TGI [20]: 3330 nM
GI50 [21]: 1620 nM
TGI [21]: 4230 nM
GI50 [22]: 2210 nM
TGI [22]: 10400 nM
GI50 [23]: 1500 nM
TGI [23]: 2860 nM
GI50 [24]: 634 nM
TGI [24]: 2220 nM
GI50 [25]: 1750 nM
TGI [25]: 4990 nM
GI50 [26]: 1760 nM
TGI [26]: 4890 nM
GI50 [27]: 1650 nM
TGI [27]: 4050 nM
GI50 [28]: 1290 nM
TGI [28]: 2550 nM
GI50 [29]: 1140 nM
TGI [29]: 2350 nM
GI50 [30]: 1550 nM
TGI [30]: 2900 nM
GI50 [31]: 290 nM
TGI [31]: 964 nM
GI50 [32]: 49.7 nM
TGI [32]: 1060 nM
GI50 [33]: 1740 nM
TGI [33]: 3140 nM
GI50 [34]: 1560 nM
TGI [34]: 2940 nM
GI50 [35]: 1820 nM
TGI [35]: 3440 nM
GI50 [36]: 1290 nM
TGI [36]: 2690 nM
GI50 [37]: 1110 nM
TGI [37]: 2320 nM
GI50 [38]: 1760 nM
TGI [38]: 4850 nM
GI50 [39]: 865 nM
TGI [39]: 2160 nM
GI50 [40]: 650 nM
TGI [40]: 2380 nM
GI50 [41]: 1080 nM
TGI [41]: 3130 nM
GI50 [42]: 720 nM
TGI [42]: 2270 nM
GI50 [43]: 331 nM
TGI [43]: 3310 nM
GI50 [44]: 1480 nM
TGI [44]: 3300 nM
GI50 [45]: 434 nM
TGI [45]: 13600 nM
GI50 [46]: 1690 nM
TGI [46]: 3290 nM
GI50 [47]: 1860 nM
TGI [47]: 3770 nM
GI50 [48]: 1730 nM
TGI [48]: 3760 nM
GI50 [49]: 209 nM
TGI [49]: 1160 nM
GI50 [50]: 704 nM
TGI [50]: 4040 nM
GI50 [51]: 1760 nM
TGI [51]: 5000 nM
GI50 [52]: 438 nM
TGI [52]: 1710 nM
GI50 [53]: 1380 nM
TGI [53]: 2990 nM
GI50 [54]: 1060 nM
TGI [54]: 2290 nM
GI50 [55]: 583 nM
TGI [55]: 1880 nM
GI50 [56]: 1250 nM
TGI [56]: 3070 nM
